Laboratory results as given in article PMC4449328 (European neuropsychopharmacology : the journal of the …, 2014).

Tests used:
D3 receptor [1] = biological target: T1, D3 receptor (Homo sapiens, UniProt P35462); settings: read-out: Ki±SEM; binding data previously reported; ref Newman et al. (2003); cited from earlier work
D3 dopamine receptor = D3 dopamine receptor (Homo sapiens, UniProt P35462); assay: β-arrestin recruitment assay; type: cell-based
D3 receptor [2] = biological target: T1, D3 receptor; assay: [3H]methylspiperone saturation binding; settings: 1 μM sulpiride (Fig. 6)

T1 sequence (P35462 whole entry): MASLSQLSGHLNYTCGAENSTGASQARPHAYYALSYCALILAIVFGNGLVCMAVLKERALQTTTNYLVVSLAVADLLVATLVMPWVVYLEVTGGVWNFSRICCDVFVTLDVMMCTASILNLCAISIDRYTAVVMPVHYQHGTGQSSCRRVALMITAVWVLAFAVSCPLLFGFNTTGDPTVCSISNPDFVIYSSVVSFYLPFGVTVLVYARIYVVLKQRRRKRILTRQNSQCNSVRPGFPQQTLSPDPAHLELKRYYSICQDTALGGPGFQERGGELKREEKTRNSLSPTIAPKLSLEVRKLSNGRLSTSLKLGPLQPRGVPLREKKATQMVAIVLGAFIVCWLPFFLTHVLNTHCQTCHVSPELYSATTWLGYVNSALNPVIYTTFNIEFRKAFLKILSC
Sequence of D3 dopamine receptor (P35462 whole entry): as above

In the case of `O=C(NCCCCN1CCN(c2cccc(Cl)c2Cl)CC1)c1ccc(-c2ccccn2)cc1` [CJB 090], the Ki (D3 receptor [1]) is listed as 0.6 ± 0.2 nM.

In the case of `CCN1CCCC1CNC(=O)c1cc(S(N)(=O)=O)ccc1OC` (stereo not shown) [sulpiride], the “Hill slope of Schild plot” value (D3 dopamine receptor; curve-shift of dopamine concentration response (Fig. 7), n=3–5, mean±SEM) is reported as 1.04±0.05, the “Hill slope of Schild plot” value (D3 dopamine receptor; curve-shift of dopamine concentration response (Fig. 11)) is reported as 1.04±0.05 and the “Bmax of [3H]methylspiperone in presence of compound” value (D3 receptor [2]) is reported as 6,190 fmol/mg.
